Columns and labels:
[1] = system: proliferating CaCo-2 cells; assay: Neutral red uptake (NRU) cell viability assay, 72 h; type: cell-based; conditions: Homo sapiens, CaCo-2 proliferating, 72 h of exposition
Procedure: (§1) The CaCo-2 cell line was cultured in EMEM medium supplemented with 10% heat-inactivated FBS, 1% non-essential amino acids, 1% glutamine, and 0.5% penicillin/streptomycin. The cells were grown in 96-well plates for 3 (proliferating cells) and 21 (differentiated cells) days in a humidified atmosphere containing 5% CO2 at 37 °C and subcultured every 3 days.
(§2) The prenylflavonoids and NAR were pre-dissolved in DMSO, while 5-FU, IRT and OxPt were pre-dissolved in distilled water. […] During screening for antiproliferative effects, SW480, SW620, and CaCo-2 were exposed to various concentrations of individual compounds in culture medium: XH, IXH, 6-PN and 8-PN (1–100 μmol/L), NAR (1–200 µmol/L), 5-FU and IRT (0.1–100 µmol/L), and OxPt (0.1–25 µmol/L). The cells cultured in medium with 0.1% DMSO or 0.2% DMSO (for 8-PN only) were used as untreated control samples. In the case of OxPt, the untreated control sample contained cells cultured in medium only. The cells treated with 10% DMSO served as a positive control. Neutral red uptake (NRU) assay was used to determine the number of viable cells after 72 h of exposition. The effect of prenylflavonoids and NAR on 5-FU, IRT or OxPt efficacy was evaluated using CalcuSyn (ver. 1.1) software.
(§3) In the NRU assay, the cells were cultured in 96-well plates (SW480 and SW620: 2500 cells/well; CaCo-2 cells: 200 cells/well) and exposed to the tested compounds for 72 h. Thereafter, the medium was removed and 100 μL of neutral red-containing medium was added into each well and the plates were incubated at 37 °C for an additional 3 h. Then the cells were washed with 100 μL of PBS and fixed in a solution of 0.5% formaldehyde/1% calcium chloride for 15 minutes. The neutral red dye was extracted from the viable cells with a solvent (50% ethanol/1% acetic acid) by shaking for 30 min at room temperature. The absorbance of solubilized dye was measured using the spectrophotometer Infinite M200 (Tecan, Männedorf, Switzerland) at 540 nm. Each sample was assayed in six parallels and three independent experiments were performed. The viabilities of treated cells were expressed as a percentage of untreated controls (100%).
(§4) All calculations were done using Microsoft Excel and GraphPad Prism 7.03 (GraphPad Software, La Jolla, CA, USA). All values were expressed as mean ± S.D. of a given number of experiments. Statistical significance (evaluated using a one-way ANOVA with Dunett’s test) was acceptable to a level of p < 0.05. The concentration inducing a 50% decrease of cell viability as compared to control (IC50) was calculated using GraphPad Prism 7.03—nonlinear regression.

[2] = system: differentiated CaCo-2 cells; assay: as above; type: cell-based; conditions: Homo sapiens, CaCo-2 differentiated, 72 h of exposition
Procedure: as §1, §2, §3, §4

SW480 cells = assay: as above; type: cell-based, human; conditions: SW480, 72 h of exposition
Excerpt: as §2, §3, §4

SW620 cells [3] = assay: as above; type: cell-based, human
Excerpt: as §2, §3, §4

[4] = system: colorectal cancer cell lines SW480, SW620 and CaCo-2; assay: Antiproliferative effect (NRU assay) across colorectal cancer cell lines; type: cell-based; conditions: Homo sapiens; proliferating colon cancer cells (SW480, SW620, CaCo-2), 72 h; read-out: IC50 range over cell lines
Excerpt: as §2, with “Neutral red uptake (NRU) assay was used to determine the number of viable cells after 72 h of exposition.” left out
In the NRU assay, the cells were cultured in 96-well plates (SW480 and SW620: 2500 cells/well; CaCo-2 cells: 200 cells/well) and exposed to the tested compounds for 72 h. […] The absorbance of solubilized dye was measured using the spectrophotometer Infinite M200 (Tecan, Männedorf, Switzerland) at 540 nm. […] The viabilities of treated cells were expressed as a percentage of untreated controls (100%).
All calculations were done using Microsoft Excel and GraphPad Prism 7.03 (GraphPad Software, La Jolla, CA, USA). All values were expressed as mean ± S.D. of a given number of experiments. […]

SW620 cells [5] = assay: Cellular ROS formation (H2DCF-DA oxidation); type: cell-based, human; conditions: for ROS production vs control: SW620, compound alone at its IC50, 0.5-24 h incubation
Procedure: To assess ROS generation in SW620 cells, a measurement of 2′,7′-dichlorodihydrofluorescein-diacetate (H2DCF-DA) oxidation was used. Cells (seeded in a 96-well plate at a density of 2500 cells/well) were washed with PBS buffer and incubated with 100 μL of 5 μM H2DCF-DA in Hank’s balanced salt solution (HBSS). […] Finally, fluorescence intensity was measured at the excitation and emission wavelengths of 485 nm/525 nm for 50 min at 37 °C using the microplate reader Infinite M200 (Tecan, Männedorf, Switzerland). The cells incubated in HBSS with DMSO only (as a solvent) were used as untreated control samples, while those incubated in the presence of 3% H2O2 were used as a positive control.
As is generally accepted, cancer cells generate more ROS than do normal cells and at the same time, they are sensitive to the effect of agents which augment oxidative stress and thus push these stressed cells beyond their limit. Therefore, the pro-oxidative effect of prenylflavonoids and NAR was tested in the SW620 cells in order to elucidate the observed antiproliferative effects of these compounds. […] ROS production was measured in the SW620 cells incubated with prenylflavonoids or NAR at a concentration equal to their IC50 using a DCFH-DA assay. ROS production was monitored during 24-hour incubation at several time points (0.5, 1, 4, 8, and 24 h).
(§5) Further, we decided to determine the influence of combinations of the studied flavonoids with cytostatics on ROS formation and the activity of caspases in SW620 cells. Combination effects of flavonoids and cytostatics were investigated at equipotent concentrations of the IC50 values for each compound. ROS production was monitored using a DCFH-DA assay at several time points (0.5, 1, 4, 8, and 24 h) during a 24-hour incubation. The activities of caspases-8, -9, and -3/7 were assessed using a luminescence assay kit at 4, 8, and 24 h of incubation.

[6] = system: caspases-3/7 in SW620 cells; assay: Caspase-Glo assay, effector caspases-3/7 activity; type: cell-based, human; conditions: for Caspase-3/7 activity, combination with 5-FU / Caspase-3/7 activity, combination with IRT / Caspase-3/7 activity, combination with OxPt: SW620, 24-hour incubation, compared to cytostatic alone; for Induction of caspases-3/7 activity: SW620, compound at IC50, 24-h exposure
Procedure: (§6) The activities of initiator caspases-8 and -9 and effector caspases-3/7 were assayed using Caspase-Glo Assays (Promega, Madison, USA). The SW620 cells (seeded in a […]) were cultivated in 12-well plates. […] The untreated control cells were incubated in medium containing only 0.1% DMSO. The lysates were collected into microtubes. Caspase-8, Caspase-9 and Caspases-3/7 reagents were prepared according to the manufacturer’s instructions. The lysates (25 μL in each well) were transferred into a white-walled 384-well-plate for the luminometer, at which point 25 μL of Caspase-8 or Caspase-9 or Caspases-3/7 reagents were added to each well. The plate was gently mixed for 30 seconds and then incubated for 30 minutes at room temperature. The luminescence was measured using the luminometer Infinite M200 (Tecan, Männedorf, Switzerland).
(§7) In order to determine whether the observed antiproliferative activity of the prenylflavonoids and naringenin could be explained at least in part by the induction of apoptosis, the activities of initiator (caspase-8 and caspase-9) as well as effector caspases (caspases-3/7) were assessed in the SW620 cells, which were exposed to the studied compounds for 4, 8, and 24 h, with the activities of the caspases measured using a luminescence assay.
as §5

caspase-9 in SW620 cells = assay: Caspase-Glo assay, initiator caspase-9 activity; type: cell-based, human
Procedure: as §6, §7, §5

caspase-8 in SW620 cells = assay: Caspase-Glo assay, initiator caspase-8 activity; type: cell-based, human
Procedure: as §6, §7, §5

[7] = Homo sapiens, SW-620, SW620, 72 h of exposition
[8] = SW620, 4-hour incubation, compared to cytostatic alone
[9] = SW620, 4-h incubation, compared to cytostatic alone
[10] = SW620, combination with 5-FU, OxPt or IRT

IC50 [1]	IC50 [2]	IC50 (SW480 cells; Homo sapiens)	IC50 (SW620 cells [3]; [7])	Structure (SMILES)	ROS production vs control (SW620 cells [5])	Caspase-3/7 activity, combination with 5-FU [6]	further results
6.2 µM	39.3 µM	3.6 µM	7.3 µM	COc1cc(O)c(CC=C(C)C)c(O)c1C(=O)/C=C/c1ccc(O)cc1 [XH, Xanthohumol]	strong pro-oxidative effect within the entire 24-hour incubation	marked increase	IC50 [4]: 3.6 to 7.3 µM; Caspase-3/7 activity, combination with IRT [6]: marked increase
–	–	> 200 µM	> 200 µM	O=C1C[C@@H](c2ccc(O)cc2)Oc2cc(O)cc(O)c21 [NAR, naringenin, reference compound]	only a mild pro-oxidative effect	–	Decrease in caspase-9 activity (caspase-9 in SW620 cells; SW620, 4 h of exposure, vs untreated control): 19.7%; Caspase-9 activity, combined with all the cytostatics (caspase-9 in SW620 cells; [10]): marked induction; ROS formation, combination with OxPt (SW620 cells [5]; SW620, flavonoid + OxPt at IC50 concentrations, all time points, vs control and flavonoid alone): feeble yet significant (p < 0.05) increase in ROS formation; ROS formation, combination with IRI (SW620 cells [5]; SW620, flavonoid + irinotecan at IC50 concentrations, all time points, vs control and flavonoid alone): feeble yet significant (p < 0.05) increase in ROS formation; Caspase-8 activity, combined with all the cytostatics (caspase-8 in SW620 cells; [10]): marked induction; Suppression of effector caspases (3/7) activity, combined with all the cytostatics ([6]; SW620, combination with 5-FU, OxPt or IRT, all time intervals): up to 61.4%; Inhibition of caspases-3/7 ([6]; SW620, compound alone, 4, 8 and 24 h, vs untreated control): up to 52.7%
47 µM	> 100 µM	40.4 µM	43.7 µM	COc1cc(O)c(CC=C(C)C)c2c1C(=O)CC(c1ccc(O)cc1)O2 (centres unmarked) [IXH, isoxanthohumol]	strong pro-oxidative effect within the entire 24-hour incubation	marked increase	Caspase-9 activity, combination with 5-FU (caspase-9 in SW620 cells; [8]): more potent than the respective cytostatics alone; Caspase-8 activity, combination with 5-FU (caspase-8 in SW620 cells; [9]): significantly increased; Caspase-8 activity, combination with OxPt (caspase-8 in SW620 cells; [9]): significantly increased; Caspase-3/7 activity, combination with IRT [6]: marked increase; Caspase-3/7 activity, combination with OxPt [6]: marked increase; Induction of caspases-3/7 activity ([6]; vs untreated control): 50.5%

More lines, now with the values behind:

Structure (SMILES)	IC50 [1]	IC50 [2]	IC50 (SW480 cells; Homo sapiens)	IC50 (SW620 cells [3]; [7])	ROS production vs control (SW620 cells [5])	Caspase-3/7 activity, combination with 5-FU [6]	further results
O=C1[O][Pt]2([NH][C@@H]3CCCC[C@H]3[NH]2)[O]C1=O [OxPt, oxaliplatin]	–	–	–	–	–	–	IC50 (SW480 cells): 1.1 µM; IC50 (SW620 cells [3]; SW620, 72 h of exposition): 1.9 µM
O=c1[nH]cc(F)c(=O)[nH]1 [5-FU, 5-fluorouracil]	–	–	22.6 µM	34.9 µM	–	–	–
CCc1c2c(nc3ccc(OC(=O)N4CCC(N5CCCCC5)CC4)cc13)-c1cc3c(c(=O)n1C2)COC(=O)[C@]3(O)CC [IRT, irinotecan]	–	–	1.7 µM	25.4 µM	–	–	–
CC(C)=CCc1c(O)cc(O)c2c1O[C@H](c1ccc(O)cc1)CC2=O [8-PN, 8-prenylnaringenin]	48.9 µM	> 100 µM	56.3 µM	24.9 µM	initially elevated ROS levels in cells and then surprisingly displayed a strong antioxidant effect at the later intervals	marked increase	Caspase-9 activity, combination with IRT (caspase-9 in SW620 cells; [8]): more potent than the respective cytostatics alone; Caspase-9 activity, combination with OxPt (caspase-9 in SW620 cells; [8]): more potent than the respective cytostatics alone; Caspase-8 activity, combination with IRT (caspase-8 in SW620 cells; [9]): significantly increased; Caspase-8 activity, combination with OxPt (caspase-8 in SW620 cells; [9]): significantly increased; Caspase-3/7 activity, combination with OxPt [6]: marked increase; Induction of caspases-3/7 activity ([6]; vs untreated control): 44.7%
CC(C)=CCc1c(O)cc2c(c1O)C(=O)C[C@@H](c1ccc(O)cc1)O2 [6-PN, 6-prenylnaringenin]	24 µM	61.9 µM	14.8 µM	13.7 µM	initially elevated ROS levels in cells and then surprisingly displayed a strong antioxidant effect at the later intervals	–	–

From article PMC6520918, “Antiproliferative Effects of Hop-derived Prenylflavonoids and Their Influence on the Efficacy of Oxaliplatine, 5-fluorouracil and Irinotecan in Human ColorectalC Cells” (Nutrients, 2019)
